Measured values taken from publication PMC9122913 (Nature Communications, 2022).

Molecular target: T1, Cyclin-dependent kinase 2 (CDK2) (Homo sapiens, UniProt P24941)
T1 construct: Full-length human CDK2, GST-N-terminal tagged fusion protein
Assay: pulldown of purified GST-CDK2 with HHT-conjugated beads (free HHT competes in lysate pulldown); DARTS in HEK293 lysate; CDK2/Cyclin A2 kinase assay inhibited at […] HHT
Assay type: binding
From the text: Thus, hydrogen-bonds with T47, R50 and R150 appear critical

`COC(=O)C[C@](O)(CCCC(C)(C)O)C(=O)O[C@@H]1C(OC)=C[C@]23CCCN2CCc2cc4c(cc2[C@H]13)OCO4` [HHT, homoharringtonine] was tested, and the “pulldown of purified GST-CDK2 with HHT-conjugated beads (free HHT competes in ly)” value was “interaction between HHT and CDK2-3As was abolished (Fig. 1G). Thus, hydrogen-bonds with T47, R50 and R150 appear critical”.
